Experimental data: patent US20260217701A1, “SELECTIVE BET INHIBITORS AND USES THEREOF” (Tay Therapeutics Limited, priority 2022, published 2026)

Tests used:
[1] = biological target: T1, BRD4 BD2 (Homo sapiens, UniProt O60885); experiment: NanoBRET bromodomain assay, NanoLuc-BRD4-BD2 in HEK293 cells; format: binding; conditions: for Fold Selectivity BRD4 BD1/BD2: IC50 BD1/IC50 BD2, qualitative if an IC50 is at the upper limit
T1 construct: HEK293 cells were transfected using NanoLuc-BRD4-BD1 or NanoLuc-BRD4-BD2 fusion vectors
Procedure: (§1) Plates were then incubated at 37° C.+5% CO2 incubator for 2 hours.
(§2) Fold Selectivity Calculated (IC50 BD1/IC50 BD2).

[2] = biological target: T2, BRD4 BD1 (Homo sapiens, UniProt O60885); experiment: NanoBRET bromodomain assay, NanoLuc-BRD4-BD1 in HEK293 cells; format: binding
T2 construct: HEK293 cells were transfected using NanoLuc-BRD4-BD1 or NanoLuc-BRD4-BD2 fusion vectors
Procedure: Exemplary compounds of the disclosure are active against BRD4 BD2 and selective over BRD4 BD1. BRD4 is a representative example of the BET family, as the binding sites of all BET family members are structurally similar. […] IC50s and fold selectivity's are determined as described below and are represented in Table 1.
as §1, §2

Row | IC50 [1] [nM] | Fold Selectivity BRD4 BD1/BD2 [1] | IC50 [2] [nM] | Compound
1 | 10 to 50 | xxx (Fold >200 and ≤1000) | > 1000 | Cc1cc(-c2cc3c(-c4cc(=O)n(C)cc4-c4ccccc4Cl)cn(C)c(=O)c3[nH]2)cc(C)n1.Cl [Example 32, 4-(5-(2-chlorophenyl)-1-methyl-2-oxo-1,2-dihydropyridin-4-yl)-2-(2,6-dimethylpyridin-4-yl)-6-methyl-1,6-dihydro-7H-pyrrolo[2,3-c]pyridin-7-one hydrogen chloride]
2 | < 10 | xxxx (Fold >1000) | > 1000 | Cc1cc(-c2cc3c(-c4cc(=O)n(C)cc4-c4ccc5c(c4)COC5)cn(C)c(=O)c3[nH]2)cc(C)n1.Cl [Example 33, 4-(5-(1,3-dihydroisobenzofuran-5-yl)-1-methyl-2-oxo-1,2-dihydropyridin-4-yl)-2-(2,6-dimethylpyridin-4-yl)-6-methyl-1,6-dihydro-7H-pyrrolo[2,3-c]pyridin-7-one hydrochloride]
3 | 10 to 50 | xxx (Fold >200 and ≤1000) | > 1000 | Cn1cc(-c2cccc(C3COC3)c2)c(-c2cn(C)c(=O)c3[nH]c(-c4ccc(F)cc4F)cc23)cc1=O [Example 35, 2-(2,4-difluorophenyl)-6-methyl-4-(1-methyl-5-(3-(oxetan-3-yl)phenyl)-2-oxo-1,2-dihydropyridin-4-yl)-1,6-dihydro-7H-pyrrolo[2,3-c]pyridin-7-one]
4 | 10 to 50 | xxx (Fold >200 and ≤1000) | > 1000 | Cn1cc(-c2cccc(CN3CCOCC3)c2)c(-c2cn(C)c(=O)c3[nH]c(-c4ccc(F)cc4F)cc23)cc1=O [Example 36, 2-(2,4-difluorophenyl)-6-methyl-4-(1-methyl-5-(3-(morpholinomethyl)phenyl)-2-oxo-1,2-dihydropyridin-4-yl)-1,6-dihydro-7H-pyrrolo[2,3-c]pyridin-7-one]
5 | 10 to 50 | xxx (Fold >200 and ≤1000) | > 1000 | Cn1cc(-c2cccnc2)c(-c2cn(C)c(=O)c3[nH]c(-c4ccc(F)cc4F)cc23)cc1=O [Example 37, 2-(2,4-difluorophenyl)-6-methyl-4-(1-methyl-6-oxo-1,6-dihydro-[3,3′-bipyridin]-4-yl)-1,6-dihydro-7H-pyrrolo[2,3-c]pyridin-7-one]
6 | 10 to 50 | xxx (Fold >200 and ≤1000) | > 1000 | Cc1cccc(C)c1Oc1cn(C)c(=O)cc1-c1cn(C)c(=O)c2[nH]c(-c3ccccn3)cc12 [Example 38, 4-(5-(2,6-dimethylphenoxy)-1-methyl-2-oxo-1,2-dihydropyridin-4-yl)-6-methyl-2-(pyridin-2-yl)-1,6-dihydro-7H-pyrrolo[2,3-c]pyridin-7-one]
7 | < 10 | xxxx (Fold >1000) | > 1000 | Cc1cccc(C)c1Oc1cn(C2CC2)c(=O)cc1-c1cn(C)c(=O)c2[nH]c(-c3ccc(F)cc3F)cc12 [Example 39, 4-(1-cyclopropyl-5-(2,6-dimethylphenoxy)-2-oxo-1,2-dihydropyridin-4-yl)-2-(2,4-difluorophenyl)-6-methyl-1,6-dihydro-7H-pyrrolo[2,3-c]pyridin-7-one]
8 | 10 to 50 | xxx (Fold >200 and ≤1000) | > 1000 | COc1cccc(-c2cc3c(-c4cc(=O)n(C5CC5)cc4Oc4c(C)cccc4C)cn(C)c(=O)c3[nH]2)c1F [Example 40, 4-(1-cyclopropyl-5-(2,6-dimethylphenoxy)-2-oxo-1,2-dihydropyridin-4-yl)-2-(2-fluoro-3-methoxyphenyl)-6-methyl-1,6-dihydro-7H-pyrrolo[2,3-c]pyridin-7-one]
9 | < 10 | xxxx (Fold >1000) | > 1000 | CCCn1cc(-c2cc3c(-c4cc(=O)n(C)cc4Oc4c(C)cccc4C)cn(C)c(=O)c3[nH]2)cn1 [Example 41, 4-(5-(2,6-dimethylphenoxy)-1-methyl-2-oxo-1,2-dihydropyridin-4-yl)-6-methyl-2-(1-propyl-1H-pyrazol-4-yl)-1,6-dihydro-7H-pyrrolo[2,3-c]pyridin-7-one]
10 | < 10 | xxxx (Fold >1000) | > 1000 | Cn1cc(-c2ccccc2)c(-c2cn(C)c(=O)c3[nH]c(-c4ccccc4F)cc23)cc1=O [Example 42, 2-(2-fluorophenyl)-6-methyl-4-(1-methyl-2-oxo-5-phenyl-1,2-dihydropyridin-4-yl)-1,6-dihydro-7H-pyrrolo[2,3-c]pyridin-7-one]
11 | < 10 | xxxx (Fold >1000) | > 1000 | Cn1cc(-c2ccccc2)c(-c2cn(C)c(=O)c3[nH]c(-c4ccc(F)cc4F)cc23)cc1=O [Example 43, 2-(2,4-difluorophenyl)-6-methyl-4-(1-methyl-2-oxo-5-phenyl-1,2-dihydropyridin-4-yl)-1,6-dihydro-7H-pyrrolo[2,3-c]pyridin-7-one]
12 | < 10 | xxxx (Fold >1000) | > 1000 | Cn1cc(-c2ccccc2)c(-c2cn(C)c(=O)c3[nH]c(-c4ccc(C5COC5)cc4)cc23)cc1=O [Example 44, 6-methyl-4-(1-methyl-2-oxo-5-phenyl-1,2-dihydropyridin-4-yl)-2-(4-(oxetan-3-yl)phenyl)-1,6-dihydro-7H-pyrrolo[2,3-c]pyridin-7-one]
13 | < 10 | xxxx (Fold >1000) | > 1000 | Cn1cc(-c2ccccc2)c(-c2cn(C)c(=O)c3[nH]c(-c4ccc(S(C)(=O)=O)cc4)cc23)cc1=O [Example 45, 6-methyl-4-(1-methyl-2-oxo-5-phenyl-1,2-dihydropyridin-4-yl)-2-(4-(methylsulfonyl)phenyl)-1,6-dihydro-7H-pyrrolo[2,3-c]pyridin-7-one]
14 | < 10 | xxxx (Fold >1000) | > 1000 | COCc1ccc(-c2cc3c(-c4cc(=O)n(C)cc4-c4ccccc4)cn(C)c(=O)c3[nH]2)cc1 [Example 46, 2-(4-(methoxymethyl)phenyl)-6-methyl-4-(1-methyl-2-oxo-5-phenyl-1,2-dihydropyridin-4-yl)-1,6-dihydro-7H-pyrrolo[2,3-c]pyridin-7-one]
15 | < 10 | xxxx (Fold >1000) | > 1000 | Cn1cc(-c2cc(=O)n(C3CC3)cc2-c2ccccc2)c2cc(-c3ccccc3F)[nH]c2c1=O [Example 47, 4-(1-cyclopropyl-2-oxo-5-phenyl-1,2-dihydropyridin-4-yl)-2-(2-fluorophenyl)-6-methyl-1,6-dihydro-7H-pyrrolo[2,3-c]pyridin-7-one]
16 | < 10 | xxxx (Fold >1000) | > 1000 | Cn1cc(-c2cc(=O)n(C3CC3)cc2-c2ccccc2)c2cc(-c3cccc(F)c3F)[nH]c2c1=O [Example 48, 4-(1-cyclopropyl-2-oxo-5-phenyl-1,2-dihydropyridin-4-yl)-2-(2,3-difluorophenyl)-6-methyl-1,6-dihydro-7H-pyrrolo[2,3-c]pyridin-7-one]

Row | Compound | IC50 [1] [nM] | Fold Selectivity BRD4 BD1/BD2 [1] | IC50 [2] [nM]
17 | Cn1cc(-c2ccccc2)c(-c2cn(C)c(=O)c3[nH]c(-c4cnn(C(F)(F)F)c4)cc23)cc1=O [Example 34, 6-methyl-4-(1-methyl-2-oxo-5-phenyl-1,2-dihydropyridin-4-yl)-2-(1-(trifluoromethyl)-1H-pyrazol-4-yl)-1,6-dihydro-7H-pyrrolo[2,3-c]pyridin-7-one] | < 10 | xxxx (Fold >1000) | > 1000
